Earlier results on two compounds are cited in US20060173046A1, “Hydroxypyridine cgrp receptor antagonists” (priority 2003, published 2006).

Ends that are not written are not given here.

In data set [1] the test system is marmoset. As to conditions: electrical stimulation of the trigeminal ganglion.
For data set [2], the system named is rat. The following applies: trigeminal ganglion stimulation.
Data set [3] has as its system rats. The following applies: electrical stimulation of the dura mater, prior administration.

For the compound `NCCCC[C@H](NC(=O)[C@@H](Cc1cc(Br)c(O)c(Br)c1)NC(=O)N1CCC(N2Cc3ccccc3NC2=O)CC1)C(=O)N1CCN(c2ccncc2)CC1` [BIBN4096BS], the “increase in facial blood flow” value in data set [1] was “blocked”. For “CGRP(8-37): a peptide CGRP antagonist (VTHRLAGLLSRSGGVVKNNFVPTNVGSKAF; ends and bridges not checked; UniProt P06881 90-119, looked up, fragment)”, the “increased facial blood flow” value in data set [2] is “inhibited”. Also, in data set [3], the “increase of the diameter of the middle meningeal artery” value is “blocked”.
